Measured values taken from article PMC8412142 (Journal of medicinal chemistry, 2021).

Experiments:
[1] = Human liver microsome intrinsic clearance; conditions: human liver microsomes
[2] = tested on: MRC5 cells; experiment: MRC5 cell toxicity; assay type: cell-based; conditions: in words
[3] = Mouse plasma stability; assay type: in vitro ADME; conditions: in words
[4] = In vivo pharmacokinetics of 29d, 10 mg/kg ip; set-up: species or system BALB/c mice
[5] = tested on: Caco-2; experiment: Caco-2 permeability and efflux assay; assay type: in vitro ADME

| Compound | HLM Clint [1] | toxicity in mammalian cells [2] | further results |
| --- | --- | --- | --- |
| 5-(1-methyl-1H-pyrazol-4-yl)-3-(4-(trifluoromethyl)phenyl)-1H-pyrrolo[2,3-b]pyridine [13i] | 66 μg/min/mg protein |  |  |
| Cn1cc(-c2cnc3[nH]cc(-c4cccc([N+](=O)[O-])c4)c3c2)cn1 [13t, 5-(1-Methyl-1H-pyrazol-4-yl)-3-(3-nitrophenyl)-1H-pyrrolo[2,3-b]pyridine] |  | showed signs of toxicity in mammalian cells |  |
| Cn1cc(-c2cnc3[nH]cc(-c4ccc(O)cc4)c3c2)cn1 [13u, 4-(5-(1-Methyl-1H-pyrazol-4-yl)-1H-pyrrolo[2,3-b]pyridin-3-yl)phenol] |  | showed signs of toxicity in mammalian cells |  |
| N#Cc1cccc(-c2c[nH]c3ncc(-c4cnn(C5CCNCC5)c4)cc23)c1 [29d] |  | non-toxic in MRC5 cells | stability in mouse plasma [3]: stable in mouse plasma; brain penetration [4]: not appreciably brain-penetrant; Mean brain concentration ([4]; sparse sampling, 0.5 h, LLOQ = 9.77 ng/mL): <LLOQ; Caco-2 efflux / transporter substrate [5]: likely a substrate for P-gp; Caco-2 permeability [5]: low permeability |
| 3-(5-(Piperidin-1-yl)-1H-pyrrolo[2,3-b]pyridin-3-yl)benzonitrile [24c] | 44 μg/min/mg protein |  |  |
